From US6303591A, “21-hydroxy-6,19-oxidoprogesterone (21OH-6OP) and its use as medicament for treating excess of glucocorticoids” (Applied Research Systems ARS Holding NV, priority 1997, dated 2001)
“Also recorded” adds a separate entry of the source. One block for each compound: values may come before it.

Tests used:
liver glycogen = liver glycogen deposition in vivo, adrenalectomized rats; parameters: species or system rat; conditions: 100 μg steroid/100 g body weight; for liver glycogen deposits: compared to ADX controls
Description: (§1) FIG. 3: Biological Properties of 21OH-6OP: A) Glycogen storage in vivo: 100 μg steroid/100 g body weight of male rats were injected as indicated in Example 1. Liver glycogen was purified and quantified with Krisman's reagent (17). Controls were injected with vehicle. Results are expressed as means±SEM (n=6). (*): different from controls P<0.02. B) TAT induction in vitro: rat hepatocytes were incubated for 5 h in HAM-F12 medium in the presence of 100 nM steroid and TAT activity was measured. Results are expressed as percentage of enzyme activity (means±SEM, n=4) over controls incubated in the presence of vehicle. (*) different from controls P<0.01. C) Sodium-retaining activity: adrenalectomized rats were treated with the indicated dose of steroids. Results are expressed as the ratio of sodium-excretion rates of steroid-injected animals to the excretion rates of rats injected with vehicle.
(§2) Bioassay : Liver glycogen deposition was measured on adrenalectoniized male Sprague-Dawley rats (180-220 g) as follows: steroids were dissolved in ethanol/propylene glycol/0.9% NaCl solution (3:3:34) and 100 μg steroid/l00 g body weight were injected i.m. the previous night. On the morning of the experiment this dose was reinjected intraperitoneally. Three hours later the rats were killed by cervical dislocation and livers were immediately removed. Glycogen purification and quantification were carried out according to Krisman's method (17). Na^+ -retaining properties were measured as described (5). Tyrosine aminotransferase (TAT) was induced in rat hepatocytes isolated by the procedure of Fry et al (18). TAT activity was determined according to Granner and Tomkins (19).

[1] = test system: tyrosine aminotransferase (TAT) induction in rat hepatocytes; experiment: TAT induction in rat hepatocytes (agonism); assay type: cell-based; conditions: for increase of TAT activity: 100 nM steroid, rat hepatocytes
Description: as §1
(§3) Hatched bars represent incubations performed in the presence of vehicle instead of agonist.
as §2
(§4) The basal TAT activity in hepatocytes, denominated control in the figure, was measured by adding vehicle (final concentration: 0.2% ethanol) to the culture. […] 2.5 μM 21OH-6OP inhibits 80% of TAT induction when concubated with B or DXM.

[2] = test system: TAT induction in hepatocytes (GR); experiment: antagonism of TAT induction by DXM or B in hepatocytes; assay type: cell-based, rat; conditions: 2.5 μM steroid
Description: as §3, §2, §4

[3] = test system: Na^+ retention (sodium-excretion rate); experiment: Na^+ -retaining activity, adrenalectomized rats; assay type: in vivo, rat
Description: as §1, §2

[4] = test system: Na^+ retention (sodium-excretion rate); conditions: earlier study, ref (5); cited from earlier work
[5] = biological target: T1, type I receptors (kidney MR) (Rattus norvegicus, UniProt P22199); experiment: tracer binding (Scatchard) to kidney type I sites (MR); conditions: for nH, type I: Hill coefficient; for Q, type I: apparent number of sites
T1 construct: kidneys as a source of MR; from tissue; host or cells: kidney cytosol, adrenalectomized male Sprague-Dawley rats
T1 sequence (P22199 1-981): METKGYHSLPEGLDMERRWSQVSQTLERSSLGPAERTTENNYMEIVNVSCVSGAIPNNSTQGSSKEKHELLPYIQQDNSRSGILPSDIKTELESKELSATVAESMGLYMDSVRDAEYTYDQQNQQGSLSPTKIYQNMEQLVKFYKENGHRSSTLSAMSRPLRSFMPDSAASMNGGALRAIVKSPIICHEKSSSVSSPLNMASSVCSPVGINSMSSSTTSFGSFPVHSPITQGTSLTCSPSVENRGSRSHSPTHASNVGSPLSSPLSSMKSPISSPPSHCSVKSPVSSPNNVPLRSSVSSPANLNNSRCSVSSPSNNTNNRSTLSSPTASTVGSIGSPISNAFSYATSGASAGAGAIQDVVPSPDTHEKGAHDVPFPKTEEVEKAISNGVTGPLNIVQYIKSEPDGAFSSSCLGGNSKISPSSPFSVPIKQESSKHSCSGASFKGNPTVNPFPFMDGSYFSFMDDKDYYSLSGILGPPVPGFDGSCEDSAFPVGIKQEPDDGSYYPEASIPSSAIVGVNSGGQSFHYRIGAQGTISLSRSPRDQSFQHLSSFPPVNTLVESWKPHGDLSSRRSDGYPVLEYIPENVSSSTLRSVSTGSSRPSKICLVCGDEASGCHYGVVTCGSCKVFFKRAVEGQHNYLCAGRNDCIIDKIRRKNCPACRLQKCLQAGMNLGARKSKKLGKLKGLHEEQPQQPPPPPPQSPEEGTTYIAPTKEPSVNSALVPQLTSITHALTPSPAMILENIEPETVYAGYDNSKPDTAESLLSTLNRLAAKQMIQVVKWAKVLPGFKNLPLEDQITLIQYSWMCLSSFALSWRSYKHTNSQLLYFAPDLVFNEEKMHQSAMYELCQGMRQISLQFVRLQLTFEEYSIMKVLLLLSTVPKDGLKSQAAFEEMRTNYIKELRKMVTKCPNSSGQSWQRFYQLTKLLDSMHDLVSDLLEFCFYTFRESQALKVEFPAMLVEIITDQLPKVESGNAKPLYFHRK
Description: Binding Assay: Adrenalectomized male Sprague-Dawley rats were bled to death by heart puncture. Cold 0.9% NaCI was injected profusely through the aorta until organs were completely blanched. Thymuses were used as a source of GR and kidneys as a source of MR. Homogenization and incubation conditions were performed as previously described, (14) and (15), respectively. Briefly, homogenates performed in cold TEGM buffer at pH 7.4 (0.1 M Tris-HCl, 10 mM EDTA, 10 mM α-mercaptoethanol, 20 mM Na2 MoO4, 25% glycerol, 0.1 mM PMSF, 2.0 TIU/ml aprotinin and 1 mg% Leupeptin) were centrifuged at 37,000 rev. for 30 min at 0° C. Supernatants from this centrifugation are referred to as "cytosol". […] (^3 H)-P4 binding to uterus PR was assayed on immature female rats according to Jordan et al (16). […]
(§5) To study the binding of ALDO to kidney- MR without the competitive influence of the relatively more abundant GR, GR was removed with the specific ligand RU28362 (7).

type II sites (GR) = biological target: T2, type II sites (GR) (Rattus norvegicus, UniProt P06536); experiment: tracer binding (Scatchard) to kidney type II sites (GR); conditions: no competitor
T2 construct: type II receptors in kidney cytosols; from tissue; host or cells: kidney cytosol, adrenalectomized male Sprague-Dawley rats
T2 sequence (P06536 1-795): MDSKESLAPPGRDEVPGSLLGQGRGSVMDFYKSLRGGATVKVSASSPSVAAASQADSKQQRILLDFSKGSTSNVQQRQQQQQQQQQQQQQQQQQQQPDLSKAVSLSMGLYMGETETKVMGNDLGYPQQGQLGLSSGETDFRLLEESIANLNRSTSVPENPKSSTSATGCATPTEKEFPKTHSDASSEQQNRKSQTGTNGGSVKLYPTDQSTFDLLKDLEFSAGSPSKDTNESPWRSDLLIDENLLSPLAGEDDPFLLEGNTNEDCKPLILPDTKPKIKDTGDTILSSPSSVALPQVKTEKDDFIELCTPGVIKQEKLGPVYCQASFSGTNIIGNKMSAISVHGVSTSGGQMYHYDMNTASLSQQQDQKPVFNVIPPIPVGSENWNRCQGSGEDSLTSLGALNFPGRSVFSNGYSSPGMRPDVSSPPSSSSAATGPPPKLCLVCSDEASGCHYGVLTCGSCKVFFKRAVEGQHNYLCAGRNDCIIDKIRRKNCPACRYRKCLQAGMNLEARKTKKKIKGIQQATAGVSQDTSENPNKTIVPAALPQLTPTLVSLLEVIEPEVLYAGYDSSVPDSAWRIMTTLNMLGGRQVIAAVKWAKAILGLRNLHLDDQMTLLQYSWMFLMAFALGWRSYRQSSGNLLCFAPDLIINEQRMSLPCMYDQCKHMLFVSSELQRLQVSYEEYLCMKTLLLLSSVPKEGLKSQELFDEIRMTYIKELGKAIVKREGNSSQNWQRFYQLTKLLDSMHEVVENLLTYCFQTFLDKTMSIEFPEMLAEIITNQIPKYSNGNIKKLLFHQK
Description: Binding Assay: Adrenalectomized male Sprague-Dawley rats were bled to death by heart puncture. Cold 0.9% NaCI was injected profusely through the aorta until organs were completely blanched. Thymuses were used as a source of GR and kidneys as a source of MR. Homogenization and incubation conditions were performed as previously described, (14) and (15), respectively. Briefly, homogenates performed in cold TEGM buffer at pH 7.4 (0.1 M Tris-HCl, 10 mM EDTA, 10 mM α-mercaptoethanol, 20 mM Na2 MoO4, 25% glycerol, 0.1 mM PMSF, 2.0 TIU/ml aprotinin and 1 mg% Leupeptin) were centrifuged at 37,000 rev. for 30 min at 0° C. Supernatants from this centrifugation are referred to as "cytosol". […] (^3 H)-P4 binding to uterus PR was assayed on immature female rats according to Jordan et al (16).
as §5
The calculated Kd for type I sites in different conditions ranges between 0.4 and 1 nM (Table 1) which is at least eighty times higher than the affinity for type II sites.

hippocampus type I MR = conditions: ref (9); cited from earlier work
PR = conditions: background; cited from earlier work
[6] = test system: inoperable cases of nonpituitary Cushing's syndrome; conditions: cited from earlier work
[7] = in the presence of 2.5 μM 21OH-6OP
[8] = in the presence of 10 μM RU-28362

Compound: CC(=O)[C@H]1CC[C@H]2[C@@H]3C[C@H]4OC[C@@]5(CCC(=O)C=C45)[C@H]3CC[C@]12C [6OP, 6,19-oxidoprogesterone]
GC response: liver glycogen (liver glycogen; FIG. 3-A): neither 6OP nor 21OH-6OP evoke these responses | TAT induction (in words) ([1]; FIGS. 3-B and 4 (hatched bars), no agonist added): neither 6OP nor 21OH-6OP evoke these responses; also recorded: Neither 6OP nor 21OH-6OP facilitate TAT induction | GC properties ([1]; preliminary studies, test not specified): lack of GC properties | antagonism of TAT induction by B (in words) ([2]; 100 nM B): significantly different (P<0.01) from the basal activity | antagonism of TAT induction by DXM (in words) ([2]; 100 nM DXM): significantly different (P<0.01) from the basal activity | Na^+ -retaining (MC) properties (in words) ([3]; FIG. 3-C): weak Na^+ -retainer; also recorded: then loosing activity at still higher doses | maximum Na^+ retention ([3]; maximum of parabolic dose-response, at high doses): 50% | Na^+ retaining properties [4]: exhibited practically no Na^+ retaining properties

Compound: C[C@]12CCC(=O)C=C1CC[C@@H]1[C@@H]2[C@@H](O)C[C@]2(C=O)[C@@H](C(=O)CO)CC[C@@H]12 [(^3 H)-ALDO, Aldosterone]
nH, type I [5, 7]: 0.88 | nH, type I [5, 8]: 0.90 | nH, type I ([5]; no competitor): 0.97 | Q, type I [5, 7]: 110 fmol/mg | Q, type I [5, 8]: 124.4 fmol/mg | Q, type I ([5]; no competitor): 104 fmol/mg | nH, type II (type II sites (GR); Hill coefficient): 0.86 | Q, type II (type II sites (GR); apparent number of sites): 2900 fmol/mg | Kd (type II sites (GR)): 64.4 nM

Compound: COC(=O)[C@@H]1CC2=CC(=O)CC[C@]2(C)[C@H]2CC[C@@]3(C)[C@@H]([C@@H]4C[C@@H]4[C@@]34CCC(=O)O4)[C@H]12 [(^3 H)-ZK91587]
binding to hippocampus type I MR (hippocampus type I MR): hippocampus type I MR (9) | nH, type I ([5]; no competitor): 0.91 | Q, type I ([5]; no competitor): 98 fmol/mg | Kd ([5]; no competitor): 0.42 nM

increase of TAT activity [1]: between five and six times
Compound: C[C@]12C[C@H](O)[C@H]3[C@@H](CCC4=CC(=O)CC[C@@]43C)[C@@H]1CC[C@@H]2C(=O)CO [B, corticosterone]
liver glycogen deposits (liver glycogen): between three and four times more

Compound: C[C@@H]1C[C@H]2[C@@H]3CCC4=CC(=O)C=C[C@]4(C)[C@@]3(F)[C@@H](O)C[C@]2(C)[C@@]1(O)C(=O)CO [DXM, dexamethasone]
liver glycogen deposits (liver glycogen): between three and four times more | increase of TAT activity [1]: between five and six times

Compound: CC#C[C@]1(O)CC[C@H]2[C@@H]3C=C(C)C4=CC(=O)C=C[C@]4(C)[C@H]3[C@@H](O)C[C@@]21C [RU28862]
reduction of (^3 H)-ALDO Scatchard plot to type I sites ([5]; 1.0 μM RU28862, selective MR ligand ZK91587): reduces the plot to a single line corresponding to type I sites

Compound: CC#C[C@]1(O)CC[C@H]2[C@@H]3CCC4=CC(=O)CCC4=C3[C@@H](c3ccc(N(C)C)cc3)C[C@@]21C [RU38486]
antiprogestin activity (PR): strong antiprogestin activity | dose needed for effectiveness [6]: 20-800 mg per day
